# Values quoted from earlier work as cited in US10328118B2, “High purity oritavancin and method of producing same” (priority 2014, dated 2019).
# Like-named read-outs stand apart in the source and are kept apart here.
# Key:
# [1] = tested on: animal models
# [2] = tested on: subjects
“red man” syndrome (histamine-like response) during infusion ([2]; in vivo),Compound,teratogenicity ([1]; animal models),“red man” syndrome (histamine-like response) during infusion ([2]; rapid infusion into subjects),teratogenicity ([1]; in vivo)
,CN[C@H](CC(C)C)C(=O)N[C@H]1C(=O)N[C@@H](CC(N)=O)C(=O)N[C@H]2C(=O)N[C@H]3C(=O)N[C@H](C(=O)N[C@H](C(=O)O)c4cc(O)cc(O)c4-c4cc3ccc4O)[C@H](O)c3ccc(c(Cl)c3)Oc3cc2cc(c3O[C@@H]2O[C@H](CO)[C@@H](O)[C@H](O)[C@H]2O[C@H]2C[C@](C)(N)[C@H](O)[C@H](C)O2)Oc2ccc(cc2Cl)[C@H]1O [vancomycin],non-teratogenic,associated with the “red man” syndrome,
not seen,teicoplanin,,,non-teratogenic
